Among the test systems are HL-60; DU-145; SNB-75; U-251; Hs-578T; SF-295; HCC 2998; MCF7; PC-3; A549; EKVX; SK-OV-3; TK-10; NCI-H522; OVCAR-5; T47D; SF-539; UO-31; RPMI-8226.
What all share (assay): growth of human tumour cells (NCI), 48 h

Eight compounds from ChEMBL document CHEMBL1201862, “PubChem BioAssay data set” (2004) can be followed below.

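Growth conditions: 96-well plates. Treatment: test compound, 48 hours, 5 concentrations. Analysis: linear interpolation between bracketing concentrations; unreached endpoints set to highest concentration. GI50 is the concentration that inhibits growth by half.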 The source made the active and inactive calls. No stated cut-off is given here; in the data, active = GI50 up to about 1.1 µM and inactive = higher. A value given as a limit tells only on which side of the number the result lay.

`FC(F)(F)c1ccc2nc3n(c2c1)C(c1c(Cl)cccc1Cl)SC3` (stereo not given): the GI50 is 2.47 µM (inactive) with HL-60; 17 µM (inactive) with DU-145; 13 µM (inactive) in the test on SNB-75; 17.4 µM (inactive) with U-251; 23.1 µM (inactive) in the test with Hs-578T; 16.4 µM (inactive) in the test on SF-295. The GI50 in the test with HCC 2998 was 18.5 µM (inactive); in the test with MCF7 it was 16.1 µM (inactive); in the test with PC-3, 14.9 µM (inactive); in the test with A549, 15 µM (inactive); in the test on EKVX, 13.8 µM (inactive); in the test on SK-OV-3, 14 µM (inactive). For the same compound, the GI50 is 18.3 µM (inactive) in the test with TK-10; 11.9 µM (inactive) in the test on NCI-H522; 15.9 µM (inactive) in the test on OVCAR-5; 11.2 µM (inactive) in the test on T47D; 15.7 µM (inactive) with SF-539; 13.8 µM (inactive) in the test on UO-31.

`CSc1ncc2c(C#N)c3ccccn3c(=O)c2n1`: the GI50 with HL-60, with DU-145, in the test on SNB-75, with U-251, in the test with Hs-578T and in the test with SF-295 was > 100 µM (inactive) throughout. The GI50 in the test on HCC 2998, in the test on MCF7, in the test on PC-3, with A549, with EKVX and with SK-OV-3 was > 100 µM (inactive) throughout. Further, the GI50 in the test with TK-10, with RPMI-8226, in the test on OVCAR-5, in the test on T47D, with SF-539 and in the test on UO-31 was > 100 µM (inactive) each time.

`CC1OC(O[C@H]2CC[C@]3(C)[C@H]4CC=C5[C@@H]6[C@@H](C)[C@H](C)CC[C@]6(C(=O)O)CC[C@@]5(C(=O)O)[C@]4(C)CC[C@H]3C2(C)C)C(O)C(O)C1O` (stereo not given in full): the GI50 with HL-60 was 24.8 µM (inactive); with DU-145 it was > 75 µM (inactive); in the test with SNB-75 it was > 75 µM (inactive); with U-251 it was > 75 µM (inactive); in the test on Hs-578T it was > 75 µM (inactive); in the test with SF-295 it was > 75 µM (inactive). Also, the GI50 in the test on HCC 2998, in the test with MCF7, with PC-3, in the test with SK-OV-3, with TK-10 and in the test with NCI-H522 was > 75 µM (inactive) throughout. Also, the GI50 in the test with OVCAR-5, in the test on T47D, with SF-539 and in the test on UO-31 was > 75 µM (inactive) throughout.

In the case of `Cc1ncc2c(=O)c3c(oc2n1)c1ccccc1n3Cc1ccccc1`, the GI50 with HL-60 is > 100 µM (inactive); with DU-145 it was > 100 µM (inactive); with SNB-75, 29.5 µM (inactive); in the test on U-251, 75.5 µM (inactive); in the test with Hs-578T, > 100 µM (inactive); with SF-295, > 100 µM (inactive). The GI50 in the test on HCC 2998, in the test on MCF7, in the test on PC-3, in the test on A549, in the test on EKVX and in the test on TK-10 was > 100 µM (inactive) in each case. For the same compound, the GI50 was > 100 µM (inactive) in the test on NCI-H522; > 100 µM (inactive) in the test on RPMI-8226; > 100 µM (inactive) with OVCAR-5; 7.24 µM (inactive) in the test on T47D; > 100 µM (inactive) in the test on SF-539; > 100 µM (inactive) with UO-31.

For `Cc1ccc(S(=O)(=O)NNC(=O)c2cc(C)ccc2NC(=O)C23CC4CC(CC(C4)C2)C3)cc1`, the GI50 is 66.8 µM (inactive) in the test on HL-60; 29.6 µM (inactive) in the test on DU-145; 27.6 µM (inactive) in the test on U-251; 32.9 µM (inactive) in the test with Hs-578T; 45.5 µM (inactive) in the test with SF-295; 30.1 µM (inactive) with HCC 2998. In addition, the GI50 in the test with MCF7 is 37.2 µM (inactive); in the test on PC-3, 34.5 µM (inactive); in the test with A549, 29.4 µM (inactive); with EKVX, 60 µM (inactive); with SK-OV-3 it was 22.6 µM (inactive); in the test with TK-10 it was 41.8 µM (inactive). The GI50 in the test with NCI-H522 was 20.2 µM (inactive); in the test on RPMI-8226, > 100 µM (inactive); in the test on OVCAR-5, > 100 µM (inactive); in the test on T47D it was 22.2 µM (inactive); with SF-539, 52.1 µM (inactive); with UO-31, 21.6 µM (inactive).

Turning to `CCOC(=O)C1C(c2ccc(OC)cc2)c2c(nn(-c3ccccc3)c2O)CC1(O)OCC` (stereo not given), the GI50 in the test on HL-60 is 0.47 µM (active); with DU-145 it was 44.6 µM (inactive); in the test on SNB-75, 82.4 µM (inactive); with U-251, > 100 µM (inactive); with Hs-578T, > 100 µM (inactive); in the test on SF-295, 1.92 µM (inactive). Also, the GI50 is > 100 µM (inactive) in the test on HCC 2998; 30.1 µM (inactive) in the test with MCF7; 9.31 µM (inactive) with PC-3; 24 µM (inactive) with A549; 98.9 µM (inactive) with EKVX; > 100 µM (inactive) with TK-10. The GI50 in the test with NCI-H522 is 50.4 µM (inactive); with RPMI-8226 it was 2.58 µM (inactive); in the test on OVCAR-5, > 100 µM (inactive); in the test with T47D, 12.8 µM (inactive); in the test on SF-539, > 100 µM (inactive); in the test on UO-31 it was 5.46 µM (inactive).

Turning to `N#Cc1c(-c2ccc(Cl)cc2)c2c(n(C3OC(CO)C(O)C(O)C3O)c1=S)CCC2` (stereo not given), the GI50 with HL-60 was > 100 µM (inactive); with DU-145, 42.4 µM (inactive); in the test with SNB-75 it was 19.8 µM (inactive); in the test on U-251, 31 µM (inactive); with Hs-578T, 31.7 µM (inactive); with SF-295, > 10 µM (inactive). Also, the GI50 in the test on HCC 2998 is 19.8 µM (inactive); in the test with MCF7 it was 20.9 µM (inactive); in the test on PC-3, 28.4 µM (inactive); in the test on A549, 31.7 µM (inactive); in the test with SK-OV-3, 39.5 µM (inactive); in the test on TK-10, 37.6 µM (inactive). Further, the GI50 in the test on RPMI-8226 is 45.8 µM (inactive); with OVCAR-5 it was 41.3 µM (inactive); in the test with T47D it was 20.5 µM (inactive); in the test on SF-539, 19.2 µM (inactive); with UO-31 it was 38.7 µM (inactive).

As for `CC(C)OCC(O)COc1cc(=O)oc2ccccc12` (stereo not given), the GI50 in the test on HL-60 is > 100 µM (inactive); with DU-145, > 100 µM (inactive); in the test on U-251, > 100 µM (inactive); with Hs-578T, > 100 µM (inactive); in the test on SF-295, > 100 µM (inactive); with HCC 2998, 50.4 µM (inactive). The GI50 with MCF7, in the test on PC-3, in the test with A549, in the test with EKVX, with SK-OV-3 and in the test on TK-10 was > 100 µM (inactive) each time. Further, the GI50 with NCI-H522, in the test with RPMI-8226, in the test with OVCAR-5, in the test on T47D and in the test on UO-31 was > 100 µM (inactive) each time.
